The values that follow come from patent US5726325A, “Tricyclic compounds” (Kyowa Hakko Kogyo Co., Ltd., priority 1995, dated 1998).

Test [1] deals with detrusor muscle. Briefly: Test Example 1: relaxation of guinea pig bladder strips contracted with 50 mM KCl. The test is classed as cell-based, guinea pig (male albino Hartley). Conditions: Cavia porcellus; contraction induced by 50 mM KCl; concentration decreasing detrusor contraction by 50%. The source says: (§1) The activity of Compound (I) as a smooth muscle relaxant which is useful as a therapeutic agent for urinary incontinence can be observed, for example, using the following tests. In the following Test Examples 1 and 2, "IC50 " means the concentration of a test compound which induces the decrease in the contraction of detrusor muscle by 50%.
(§2) Male albino Hartley guinea pigs (350-550 g) were used as test animals. Each animal was exsanguinated to death under pentobarbital sodium anesthesia. The lower abdominal cavity was opened and its bladder was positioned. The connective tissue and the fat tissue around the bladder were removed, and the bladder was cleaned. After two pelvic nerves on the surface of the abdominal side of the bladder were dissected, the bladder was taken out on the entrance of ureter. The bladder was washed with a Krebs-Henseleit buffer [composition (mM): NaCl 118, KCl 4.7, MgSO4 1.2, KH2 PO4 1.2, CaCl2 2.5, NaHCO3 25, and D-glucose 11.1], and then put on a gauze patch soaked in the buffer in a Petri dish. The dome and the trigone of the bladder were dissected and discarded. The back of the bladder was cut vertically in the middle with scissors, and the bladder was put flat on the gauze patch. The dome tip and the side of the trigone of the bladder were dissected and discarded, and the mucosa of the bladder was removed. The back of the bladder was cut vertically to get 6 strips which are ca. 2.0 mm wide and ca. 10 mm long.
(§3) One end of each strip was fixed on a plastic supporter rod, and the other end was fixed on a clip connected to a suture thread. The supporter was fixed in 20 ml of an organ bath and the suture thread connected to the clip was fixed on a force-displacement transducer (NIHON KODEN TB-611T). The tissue was suspended in a Krebs-Henseleit buffer, and the bath solution was warmed to 37° C. and bubbled with a gas mixture of 5% CO2 and 95% O2. The pH of the solution was adjusted to about 7.4. The transducer was connected to a polygraph (NIHON KODEN AP-621G), and the change of tension was recorded on a recorder (YOKOGAWA type 3066). The polygraph was graduated by 0.5 g/cm.
After the tissue was incubated in the buffer for 15 minutes without preloading, tension was added thereto for about one hour. The preloading tension added was 1.5 g and it was relaxed to about 1 g. The tissue was washed at intervals of 15 minutes and the tension was adjusted to 1.5 g just before washing. The tension of the tissue was adjusted to be a steady state at 1 g. After this equilibrium time, 50 mM KCl (the whole content in the bath) was added, and the tissue was washed 10 minutes later. KCl was added to the tissue at intervals of 30 minutes, followed by washing 10 minutes later, and KCl was applied repeatedly until the developed tension induced by KCl becomes constant. When the tissue was confirmed to contract constantly by the application of KCl and relax to the steady state after washing, 50 mM KCl was applied again. After the tissue reached the steady state and the base line was obtained, a test compound was applied by the cumulative method (half-logarithmic incremence). The contact time at each concentration was 30 minutes. The activity of the compound was expressed as the maximum relaxation rate (%) of the tension induced by the agonist.

For test [2], the system named is detrusor muscle. The test is described as follows: Test Example 2: relaxation of guinea pig bladder strips, rhythmical contraction induced by 15 mM KCl. Conditions: Cavia porcellus, concentration decreasing detrusor contraction by 50%. The test is classed as cell-based, guinea pig (male albino Hartley).
Excerpt: as §1, §2, §3
The effect of a smooth muscle relaxant varies with the concentration of KCl based on the difference of an action mechanism. In the following Test Example, KCl was used at a concentration different from that in Test Example 1.
A sample of the excised bladder was prepared in the same manner as in Test Example 1, and the tension of the preparation was measured. After the tension of the tissue was adjusted to be a steady state at 1 g, 15 mM KCl was applied. After the rhythmical contraction was confirmed to appear by KCl, the tissue was washed. Then, 15 mM KCl was applied again. After the rhythmical contraction took place constantly and the tissue reached the steady state, a test compound was applied by the cumulative method (half-logarithmic incremence). The contact time at each concentration was 30 minutes. The activity of the compound was expressed as the maximum relaxation rate (%) of the tension induced by the agonist.

The subject of another test is bladder. The test is described as follows: Test Example 4: micturition contraction interval in rats under partial restraint, oral. It counts as in vivo, rat (male SD strain). Particulars: Rattus norvegicus, 1 mg/kg oral, pre-administration = 100. An excerpt: As a control compound, cromakalim was used.

For the compound `CC(O)(C(=O)Nc1ccc2c(c1)C(=O)c1ccccc1CO2)C(F)(F)F` (stereo not drawn) [Compound 3, 2-(3,3,3-Trifluoro-2-hydroxy-2-methylpropanoylamino)-6,11-dihydrodibenz[b,e]oxepin-11-one], the IC50 in the test with detrusor muscle [1] amounted to 2.2 µM; with detrusor muscle [2], 1.8 µM.

Regarding `CC(O)(C(=O)Nc1cccc2c1C(=O)c1ccccc1-2)C(F)(F)F` (stereo not drawn) [Compound 4, 1-(3,3,3-Trifluoro-2-hydroxy-2-methylpropanoylamino)fluoren-9-one], the figures for the IC50 with detrusor muscle [1] and with detrusor muscle [2] were 2.6 µM and 8.4 µM, respectively.

`CC(O)(C(=O)Nc1ccc2c(c1)-c1ccccc1C2=O)C(F)(F)F` (stereo not drawn) [Compound 6, 3-(3,3,3-Trifluoro-2-hydroxy-2-methylpropanoylamino)fluoren-9-one]: the IC50 with detrusor muscle [1] worked out at 6.1 µM; in the test on detrusor muscle [2] it was 11.2 µM.

With `CC(O)(C(=O)Nc1cc2c(cc1Cl)-c1ccccc1C2=O)C(F)(F)F` (stereo not drawn) [Compound 11, 3-Chloro-2-(3,3,3-trifluoro-2-hydroxy-2-methyl-propanoylamino)fluoren-9-one], the IC50 turned out to be 2 µM with detrusor muscle [1] and 2.2 µM in the test on detrusor muscle [2].

Consider `CC(O)(C(=O)Nc1cc2c(cc1Br)-c1ccccc1C2=O)C(F)(F)F` (stereo not drawn) [Compound 12, 3-Bromo-2-(3,3,3-trifluoro-2-hydroxy-2-methylpropanoylamino)fluoren-9-one], for which the half-inhibitory concentration (IC50) in the test on detrusor muscle [1] was 3.8 µM; in the test with detrusor muscle [2], 3.2 µM.

On to `CC(O)(C(=O)Nc1ccc2c(c1)C(=O)c1cc(Br)ccc1-2)C(F)(F)F` (stereo not drawn) [Compound 13, 7-Bromo-2-(3,3,3-trifluoro-2-hydroxy-2-methylpropanoylamino)fluoren-9-one], for which the values for the IC50 in the test on detrusor muscle [1] and in the test on detrusor muscle [2] were 3.5 µM and 48 µM, respectively.

As to `CC(O)(C(=O)Nc1cccc2c1-c1ccccc1C2=O)C(F)(F)F` (stereo not drawn) [Compound 14, 4-(3,3,3-Trifluoro-2-hydroxy-2-methylpropanoylamino)fluoren-9-one], the results for the IC50 with detrusor muscle [1] and in the test on detrusor muscle [2] were 5.7 µM and 2.3 µM, respectively.

For `CC(O)(C(=O)Nc1ccc2c(c1)OCc1sccc1C2=O)C(F)(F)F` (stereo not drawn) [Compound 18, 7-(3,3,3-Trifluoro-2-hydroxy-2-methylpropanoylamino)-4,10-dihydrothieno[2,3-c][1]benzoxepin-4-one], the IC50 in the test on detrusor muscle [1] is more than 10 µM; with detrusor muscle [2], 2.1 µM.

For `CC(O)(C(=O)Nc1ccc2c(c1)OCc1c(F)cccc1C2=O)C(F)(F)F` (stereo not drawn) [Compound 21, 7-Fluoro-3-(3,3,3-trifluoro-2-hydroxy-2-methylpropanoylamino)-6,11-dihydrodibenz[b,e]oxepin-11-one], the IC50 is 4.3 µM in the test with detrusor muscle [1] and more than 10 µM with detrusor muscle [2].

On to `Cc1ccc(NC(=O)C(C)(O)C(F)(F)F)c2c1OCc1ccccc1C2=O` (stereo not drawn) [Compound 22], for which the IC50 with detrusor muscle [1] was 4.2 µM; in the test on detrusor muscle [2], more than 10 µM.

Regarding `COc1ccc(NC(=O)C(C)(O)C(F)(F)F)c2c1OCc1ccccc1C2=O` (stereo not drawn) [Compound 23], the IC50 with detrusor muscle [1] is more than 10 µM; in the test with detrusor muscle [2], 7.8 µM.

In the case of `Cc1cc2c(cc1NC(=O)C(C)(O)C(F)(F)F)OCc1ccccc1C2=O` (stereo not drawn) [Compound 25, 2-Methyl-3-(3,3,3-trifluoro-2-hydroxy-2-methylpropanoylamino)-6,11-dihydrodibenz[b,e]oxepin-11-one], the IC50 was 2.2 µM in the test with detrusor muscle [1] and more than 10 µM with detrusor muscle [2].

As to `Cc1ccc(NC(=O)C(C)(O)C(F)(F)F)c2c1OCc1ccsc1C2=O` (stereo not drawn) [Compound 26, 6-Methyl-9-(3,3,3-trifluoro-2-hydroxy-2-methylpropanoylamino)-4,10-dihydrothieno[3,2-c][1]-benzoxepin-10-one], the values for the IC50 in the test on detrusor muscle [1] and in the test on detrusor muscle [2] were 7.1 µM and more than 10 µM, respectively.

As for `COc1ccc(NC(=O)C(C)(O)C(F)(F)F)c2c1OCc1ccsc1C2=O` (stereo not drawn) [Compound 27, 6-Methoxy-9-(3,3,3-trifluoro-2-hydroxy-2-methylpropanoylamino)-4,10-dihydrothieno[3,2-c][1]-benzoxepin-10-one], the figures for the IC50 in the test with detrusor muscle [1] and in the test with detrusor muscle [2] were 4.8 µM and more than 10 µM, respectively.

On to `C[C@@](O)(C(=O)Nc1cccc2c1C(=O)c1sccc1CO2)C(F)(F)F` [Compound 34, (R)-9-(3,3,3-Trifluoro-2-hydroxy-2-methylpropanoylamino)-4,10-dihydrothieno[3,2-c][1]benzoxepin-10-one], for which the IC50 in the test on detrusor muscle [1] came to 1.6 µM; with detrusor muscle [2], 2.2 µM.

Turning to `C[C@@](O)(C(=O)Nc1cccc2c1C(=O)c1ccoc1CO2)C(F)(F)F` [Compound 36, (R)-5-(3,3,3-Trifluoro-2-hydroxy-2-methylpropanoylamino)-4,10-dihydrofuro[2,3-c][1]benzoxepin-4-one], the IC50 in the test on detrusor muscle [1] was 8.3 µM; in the test with detrusor muscle [2], 1.3 µM.

As for `C[C@@](O)(C(=O)Nc1ccc2c(c1)OCc1occc1C2=O)C(F)(F)F` [Compound 38, (R)-7-(3,3,3-Trifluoro-2-hydroxy-2-methylpropanoylamino)-4,10-dihydrofuro[2,3-c][1]benzoxepin-4-one], the IC50 in the test on detrusor muscle [1] is 13.4 µM; with detrusor muscle [2], 0.9 µM.

Regarding `C[C@](O)(C(=O)Nc1ccc2c(c1)C(=O)c1sccc1CO2)C(F)(F)F` [Compound 39, (S)-8-(3,3,3-Trifluoro-2-hydroxy-2-methylpropanoylamino)-4,10-dihydrothieno[3,2-c][1]benzoxepin-10-one], the IC50 in the test on detrusor muscle [1] was more than 10 µM; with detrusor muscle [2], 2.6 µM.

As to `CC(O)(C(=O)Nc1cccc2c1C(=O)c1ccccc1CS2)C(F)(F)F` (stereo not drawn) [Compound 40, 1-(3,3,3-Trifluoro-2-hydroxy-2-methylpropanoylamino)-6,11-dihydrodibenzo[b,e]thiepin-11-one], the half-inhibitory concentration (IC50) in the test with detrusor muscle [1] amounted to 1.5 µM; in the test with detrusor muscle [2], 3.5 µM.

As to `CC(O)(C(=O)Nc1ccc2c(c1)SCc1ccccc1C2=O)C(F)(F)F` (stereo not drawn) [Compound 41, 3-(3,3,3-Trifluoro-2-hydroxy-2-methylpropanoylamino)-6,11-dihydrodibenzo[b,e]thiepin-11-one], the values for the IC50 in the test on detrusor muscle [1] and in the test with detrusor muscle [2] were 2.1 µM and 1.6 µM, respectively.

`CC(O)(C(=O)Nc1ccc2c(c1)SCc1sccc1C2=O)C(F)(F)F` (stereo not drawn) [Compound 47, 7-(3,3,3-Trifluoro-2-hydroxy-2-methylpropanoylamino)-4,10-dihydrothieno[2,3-c][1]benzothiepin-4-one] returned a 50% inhibitory concentration (IC50) with detrusor muscle [2] of 6.1 µM.

As to `CC(O)(C(=O)Nc1cccc2c1C(=O)c1ccsc1C[S+]2[O-])C(F)(F)F` (stereo not drawn) [Compound 50, 9-Oxo-5-(3,3,3-trifluoro-2-hydroxy-2-methylpropanoylamino)-4,10-dihydrothieno[2,3-c][1]benzothiepin-4-one], in the test on detrusor muscle [2], the IC50 was 6.1 µM.

Compound `CC(O)(C(=O)Nc1ccc2c(c1)[S+]([O-])Cc1sccc1C2=O)C(F)(F)F` (stereo not drawn) [Compound 51, 9-Oxo-7-(3,3,3-trifluoro-2-hydroxy-2-methylpropanoylamino)-4,10-dihydrothieno[2,3-c][1]benzothiepin-4-one] had an IC50 in the test with detrusor muscle [2] of 5.7 µM.

As to `CC1(C)Oc2ccc(C#N)cc2C(N2CCCC2=O)C1O` (stereo not drawn) [Cromakalim, cromakalim, reference compound], the response vs control in vivo at 1 mg/kg came to 128% with bladder (1 hr); 133% with bladder (2 hr); 142% in the test on bladder (3 hr); 133% in the test on bladder (4 hr); 133% in the test with bladder (5 hr).

As usually defined, the IC50 is the concentration that inhibits the measured activity by half. A high value points to weaker potency.
